From US10294202B2, “Pyrrolidinones as herbicides” (FMC Corporation, priority 2013, dated 2019)

Columns and labels:
[1] = test system: waterhemp; test: Test C pre-/postemergence herbicide test; format: in vivo, Amaranthus rudis
Method in brief: (§1)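 Test compounds, formulated in a surfactant-containing non-phytotoxic solvent blend, are applied to seeded loam/sand soil (preemergence) and to young plants at the 1- to 4-leaf stage in peat-based medium (postemergence). Plants stay 13 to 15 days under greenhouse conditions, then are scored visually relative to controls, 0 = no effect, 100 = complete control.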

[2] = test system: barnyardgrass; test: Test C pre-/postemergence herbicide test; format: in vivo, Echinochloa crus-galli
Method in brief: as §1

[3] = test system: rice; test: Test B flooded paddy test; format: in vivo, Oryza sativa; settings: 1000 g ai/ha, Flood; scale of 0 to 100 where 0 is no effect and 100 is complete control
Method in brief: (§2)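 Treatment was made at the 2-leaf stage by dosing the standing floodwater, kept 3 cm above soil level for the whole test. Greenhouse exposure lasted 13 to 15 days. Response is a visual percent rating relative to controls, where a dash indicates no test result.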

[4] = test system: morningglory; test: Test C pre-/postemergence herbicide test; format: in vivo, Ipomoea coccinea
Method in brief: as §1

[5] = test system: pigweed; test: Test C pre-/postemergence herbicide test; format: in vivo, Amaranthus retroflexus
Method in brief: as §1

[6] = test system: corn; test: Test C pre-/postemergence herbicide test; format: in vivo, Zea mays
Method in brief: as §1

[7] = test system: velvetleaf; test: Test C pre-/postemergence herbicide test; format: in vivo, Abutilon theophrasti
Method in brief: as §1

[8] = test system: oat, wild; test: Test C pre-/postemergence herbicide test; format: in vivo, Avena fatua; settings: Postemergence
Method in brief: as §1

[9] = test system: soybean; test: Test C pre-/postemergence herbicide test; format: in vivo, Glycine max
Method in brief: as §1

[10] = test system: oilseed rape; test: Test C pre-/postemergence herbicide test; format: in vivo, Brassica napus
Method in brief: as §1

[11] = test system: ducksalad; test: Test B flooded paddy test; format: in vivo, Heteranthera limosa; settings: 1000 g ai/ha, Flood; scale of 0 to 100 where 0 is no effect and 100 is complete control
Method in brief: as §2

[12] = test system: wheat (winter wheat); test: Test C pre-/postemergence herbicide test; format: in vivo, Triticum aestivum
Method in brief: as §1

[13] = Postemergence, 31 g ai/ha, scale 0 to 100 (0 no effect, 100 complete control)
[14] = Postemergence, 62 g ai/ha, scale 0 (no effect) to 100 (complete control)
[15] = Postemergence, 125 g ai/ha, scale 0 to 100 (0 no effect, 100 complete control)
[16] = Postemergence, 250 g ai/ha, scale 0 to 100 (0 no effect, 100 complete control)
[17] = Preemergence, 62 g ai/ha, scale 0 to 100 (0 no effect, 100 complete control)
[18] = Preemergence, 125 g ai/ha, scale 0 to 100
[19] = Preemergence, 31 g ai/ha, scale 0 to 100

O=C1NCC(c2ccc(F)c(F)c2)C1C(=O)Nc1ccc(F)c(F)c1F (stereo not shown) [Compound 346]
Plant response rating, Waterhemp [1, 13]: 0 | Plant response rating, Waterhemp [1, 14]: 0 | Plant response rating, Waterhemp [1, 15]: 15 | Plant response rating, Waterhemp [1, 16]: 40 | Waterhemp plant response rating [1, 17]: 25 | Plant response rating, Waterhemp [1, 18]: 10 | Plant response rating, Waterhemp [1, 19]: 75 | Plant response rating, Barnyardgrass [2, 13]: 0 | Plant response rating, Barnyardgrass [2, 14]: 0 | Plant response rating, Barnyardgrass [2, 15]: 30 | Plant response rating, Barnyardgrass [2, 16]: 60 | Barnyardgrass plant response rating [2, 17]: 70 | Plant response rating, Barnyardgrass ([2]; Preemergence, 125 g ai/ha, scale 0 to 100 (0 no effect, 100 complete control)): 95 | Plant response rating (scale of 0 to 100; 0 is no effect, 100 is complete control), Barnyardgrass ([2]; Preemergence, 250 g ai/ha): 98 | Plant response rating, Barnyardgrass [2, 19]: 50 | Plant response rating, Rice [3]: 0 | Plant response rating, Morningglory [4, 13]: 0 | Plant response rating, Morningglory [4, 14]: 5 | Plant response rating, Morningglory [4, 15]: 15 | Plant response rating, Morningglory [4, 16]: 5 | Morningglory plant response rating [4, 17]: 0 | Plant response rating, Morningglory [4, 18]: 30 | Plant response rating (scale of 0 to 100), Morningglory ([4]; Preemergence, 250 g ai/ha): 0 | Plant response rating, Morningglory [4, 19]: 0 | Plant response rating, Pigweed [5, 13]: 5 | Plant response rating, Pigweed [5, 14]: 5 | Plant response rating, Pigweed [5, 15]: 20 | Plant response rating, Pigweed [5, 16]: 40 | Pigweed plant response rating [5, 17]: 55 | Plant response rating, Pigweed [5, 18]: 60 | Plant response rating, Pigweed [5, 19]: 40 | Plant response rating, Corn [6, 13]: 0 | Plant response rating, Corn [6, 14]: 0 | Plant response rating, Corn [6, 15]: 0 | Plant response rating, Corn [6, 16]: 0 | Corn plant response rating [6, 17]: 0 | Plant response rating, Corn [6, 18]: 0 | Plant response rating (scale of 0 to 100), Corn ([6]; Preemergence, 250 g ai/ha): 5 | Plant response rating, Corn [6, 19]: 0 | Plant response rating, Velvetleaf [7, 13]: 0 | Plant response rating, Velvetleaf [7, 14]: 0 | Plant response rating, Velvetleaf [7, 15]: 5 | Plant response rating, Velvetleaf [7, 16]: 20 | Velvetleaf plant response rating [7, 17]: 0 | Plant response rating, Velvetleaf [7, 18]: 10 | Plant response rating, Velvetleaf [7, 19]: 0 | Plant response rating, Oat, Wild ([8]; 31 g ai/ha, scale 0 to 100 (0 no effect, 100 complete control)): 0 | Plant response rating, Oat, Wild ([8]; 62 g ai/ha, scale 0 (no effect) to 100 (complete control)): 0 | Plant response rating, Oat, Wild ([8]; 125 g ai/ha, scale 0 to 100 (0 no effect, 100 complete control)): 0 | Plant response rating, Oat, Wild ([8]; 250 g ai/ha, scale 0 to 100 (0 no effect, 100 complete control)): 0 | Plant response rating, Soybean [9, 13]: 0 | Plant response rating, Soybean [9, 14]: 5 | Plant response rating, Soybean [9, 15]: 0 | Plant response rating, Soybean [9, 16]: 5 | Soybean plant response rating [9, 17]: 0 | Plant response rating, Soybean [9, 18]: 0 | Plant response rating, Soybean [9, 19]: 0 | Plant response rating, Oilseed Rape [10, 13]: 0 | Plant response rating, Oilseed Rape [10, 14]: 0 | Plant response rating, Oilseed Rape [10, 15]: 0 | Plant response rating, Oilseed Rape [10, 16]: 0 | Oilseed Rape plant response rating [10, 17]: 0 | Plant response rating, Oilseed Rape [10, 18]: 50 | Plant response rating (scale of 0 to 100), Oilseed Rape ([10]; Preemergence, 250 g ai/ha): 60 | Plant response rating, Oilseed Rape [10, 19]: 0 | Plant response rating, Ducksalad [11]: 100 | Plant response rating, Wheat [12, 13]: 0 | Plant response rating, Wheat [12, 14]: 0 | Plant response rating, Wheat [12, 15]: 0 | Plant response rating, Wheat [12, 16]: 0 | Wheat plant response rating [12, 17]: 0 | Plant response rating, Wheat [12, 18]: 0 | Plant response rating, Wheat [12, 19]: 0
